Measured values published in publication PMC10176470, “Engaging a Non-catalytic Cysteine Residue Drives Potent and Selective Inhibition of Caspase-6” (Journal of the American Chemical Society, 2023).

Columns and labels:
Type in all cases: cell-based
[1] = biological target: proteins of HEK293T cells transiently overexpressing caspase-6 (Homo sapiens, UniProt P52272); conditions: exp_ref Probe; protein HNRNPM (P52272); analysis C6
[2] = biological target: proteins of HEK293T cells transiently overexpressing caspase-6 (Homo sapiens, UniProt P13639); conditions: protein EEF2 (P13639)
[3] = biological target: proteins of HEK293T cells transiently overexpressing caspase-6 (Homo sapiens, UniProt O14979); conditions: exp_ref Probe; protein HNRNPDL (O14979); analysis C6
Sequence of proteins of HEK293T cells transiently overexpressing caspase-6 (Homo sapiens, UniProt O14979) (O14979 whole entry): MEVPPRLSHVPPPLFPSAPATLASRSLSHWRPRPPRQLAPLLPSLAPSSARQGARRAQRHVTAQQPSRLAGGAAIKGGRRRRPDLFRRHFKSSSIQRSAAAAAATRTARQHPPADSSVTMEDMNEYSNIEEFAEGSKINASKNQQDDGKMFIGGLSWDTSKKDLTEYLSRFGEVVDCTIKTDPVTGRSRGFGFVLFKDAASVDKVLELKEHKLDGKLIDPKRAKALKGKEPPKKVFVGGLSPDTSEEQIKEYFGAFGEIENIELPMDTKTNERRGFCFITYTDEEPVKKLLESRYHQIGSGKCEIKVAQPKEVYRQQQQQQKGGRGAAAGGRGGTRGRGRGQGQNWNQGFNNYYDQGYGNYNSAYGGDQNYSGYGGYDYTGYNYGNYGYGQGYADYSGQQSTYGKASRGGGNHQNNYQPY

[4] = biological target: proteins of HEK293T cells transiently overexpressing caspase-6 (Homo sapiens, UniProt Q7KZF4); conditions: exp_ref Probe; protein SND1 (Q7KZF4); analysis C6
Sequence of proteins of HEK293T cells transiently overexpressing caspase-6 (Homo sapiens, UniProt Q7KZF4) (Q7KZF4 whole entry): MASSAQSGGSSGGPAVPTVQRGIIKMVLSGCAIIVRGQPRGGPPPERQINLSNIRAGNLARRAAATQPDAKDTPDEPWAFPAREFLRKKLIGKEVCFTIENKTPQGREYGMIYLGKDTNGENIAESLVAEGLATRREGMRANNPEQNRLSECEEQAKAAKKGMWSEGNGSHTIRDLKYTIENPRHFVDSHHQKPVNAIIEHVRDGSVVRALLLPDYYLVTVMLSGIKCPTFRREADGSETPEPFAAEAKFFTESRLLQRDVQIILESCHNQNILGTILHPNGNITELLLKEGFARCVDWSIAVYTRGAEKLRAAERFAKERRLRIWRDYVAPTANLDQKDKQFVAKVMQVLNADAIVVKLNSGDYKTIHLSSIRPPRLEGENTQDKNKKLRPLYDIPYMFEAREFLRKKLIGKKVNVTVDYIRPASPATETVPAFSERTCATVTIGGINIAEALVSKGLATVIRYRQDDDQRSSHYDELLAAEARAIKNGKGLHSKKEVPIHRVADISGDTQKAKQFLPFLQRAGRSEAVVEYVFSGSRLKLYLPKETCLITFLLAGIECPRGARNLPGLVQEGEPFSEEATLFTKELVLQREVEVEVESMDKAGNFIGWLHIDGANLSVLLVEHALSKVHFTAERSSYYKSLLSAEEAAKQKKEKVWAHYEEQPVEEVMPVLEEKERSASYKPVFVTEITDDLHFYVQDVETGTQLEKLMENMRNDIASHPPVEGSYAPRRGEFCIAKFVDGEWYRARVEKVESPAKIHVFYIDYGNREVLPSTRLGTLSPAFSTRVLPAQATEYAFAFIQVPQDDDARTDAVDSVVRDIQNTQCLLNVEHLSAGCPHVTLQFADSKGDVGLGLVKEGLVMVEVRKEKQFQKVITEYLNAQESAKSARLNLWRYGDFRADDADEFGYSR

[5] = biological target: proteins of HEK293T cells transiently overexpressing caspase-6 (Homo sapiens, UniProt Q16658); conditions: exp_ref Probe; protein FSCN1 (Q16658); analysis C6
[6] = biological target: T1, proteins of HEK293T cells transiently overexpressing caspase-6 (Homo sapiens, UniProt P55060); conditions: protein CSE1L (P55060)
T1 sequence (P55060 1-971): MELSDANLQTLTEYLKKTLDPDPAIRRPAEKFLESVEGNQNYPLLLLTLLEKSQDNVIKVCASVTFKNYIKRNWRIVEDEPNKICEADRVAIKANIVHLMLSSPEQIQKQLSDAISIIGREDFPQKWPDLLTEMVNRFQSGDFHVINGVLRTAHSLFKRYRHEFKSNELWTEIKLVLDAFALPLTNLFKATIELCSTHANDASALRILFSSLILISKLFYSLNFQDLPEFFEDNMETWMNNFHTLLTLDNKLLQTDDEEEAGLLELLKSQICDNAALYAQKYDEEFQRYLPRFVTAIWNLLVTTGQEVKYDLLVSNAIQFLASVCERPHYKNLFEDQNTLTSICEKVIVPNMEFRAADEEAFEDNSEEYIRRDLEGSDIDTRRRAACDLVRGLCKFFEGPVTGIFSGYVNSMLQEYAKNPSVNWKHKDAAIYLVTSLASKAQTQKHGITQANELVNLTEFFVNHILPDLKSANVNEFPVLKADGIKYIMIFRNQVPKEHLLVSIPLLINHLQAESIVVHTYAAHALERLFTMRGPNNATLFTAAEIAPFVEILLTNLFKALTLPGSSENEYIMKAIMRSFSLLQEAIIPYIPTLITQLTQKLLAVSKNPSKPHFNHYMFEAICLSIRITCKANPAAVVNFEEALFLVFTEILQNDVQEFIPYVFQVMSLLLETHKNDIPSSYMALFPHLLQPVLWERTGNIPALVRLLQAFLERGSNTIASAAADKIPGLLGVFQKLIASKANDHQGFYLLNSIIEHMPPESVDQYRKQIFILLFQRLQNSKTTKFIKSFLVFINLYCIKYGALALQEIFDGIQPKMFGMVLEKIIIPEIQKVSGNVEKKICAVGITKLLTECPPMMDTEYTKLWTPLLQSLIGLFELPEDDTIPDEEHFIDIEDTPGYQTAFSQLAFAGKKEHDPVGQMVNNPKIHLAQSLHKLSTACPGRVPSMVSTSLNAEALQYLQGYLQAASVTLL

[7] = biological target: proteins of HEK293T cells transiently overexpressing caspase-6 (Homo sapiens, UniProt P37837); conditions: Probe; protein TALDO1 P37837
Sequence of proteins of HEK293T cells transiently overexpressing caspase-6 (Homo sapiens, UniProt P37837) (P37837 whole entry): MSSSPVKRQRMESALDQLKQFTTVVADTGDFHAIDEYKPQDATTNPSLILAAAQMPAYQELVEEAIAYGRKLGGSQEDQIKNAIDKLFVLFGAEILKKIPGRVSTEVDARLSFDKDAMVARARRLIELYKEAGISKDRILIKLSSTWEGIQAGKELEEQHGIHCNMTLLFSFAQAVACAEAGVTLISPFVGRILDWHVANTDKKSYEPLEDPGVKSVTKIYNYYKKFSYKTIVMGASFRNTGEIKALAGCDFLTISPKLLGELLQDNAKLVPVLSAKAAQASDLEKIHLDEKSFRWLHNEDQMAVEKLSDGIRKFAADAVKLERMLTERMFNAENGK

[8] = biological target: proteins of HEK293T cells transiently overexpressing caspase-6 (Homo sapiens, UniProt O75643); conditions: exp_ref Probe; protein SNRNP200 (O75643); analysis C6
[9] = biological target: T2, proteins of HEK293T cells transiently overexpressing caspase-6 (Homo sapiens, UniProt Q02978); conditions: protein SLC25A11 (Q02978), analysis C6
T2 sequence (Q02978 1-314): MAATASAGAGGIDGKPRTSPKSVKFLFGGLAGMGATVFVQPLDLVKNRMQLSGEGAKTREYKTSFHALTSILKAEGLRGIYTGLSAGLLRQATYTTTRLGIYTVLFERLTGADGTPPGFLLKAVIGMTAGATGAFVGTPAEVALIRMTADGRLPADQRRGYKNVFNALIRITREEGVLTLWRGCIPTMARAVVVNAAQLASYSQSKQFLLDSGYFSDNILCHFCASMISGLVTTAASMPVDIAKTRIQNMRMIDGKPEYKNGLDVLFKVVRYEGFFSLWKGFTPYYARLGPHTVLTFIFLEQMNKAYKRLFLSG

[10] = biological target: proteins of HEK293T cells transiently overexpressing caspase-6 (Homo sapiens, UniProt P31948)
Sequence of proteins of HEK293T cells transiently overexpressing caspase-6 (Homo sapiens, UniProt P31948) (P31948 whole entry): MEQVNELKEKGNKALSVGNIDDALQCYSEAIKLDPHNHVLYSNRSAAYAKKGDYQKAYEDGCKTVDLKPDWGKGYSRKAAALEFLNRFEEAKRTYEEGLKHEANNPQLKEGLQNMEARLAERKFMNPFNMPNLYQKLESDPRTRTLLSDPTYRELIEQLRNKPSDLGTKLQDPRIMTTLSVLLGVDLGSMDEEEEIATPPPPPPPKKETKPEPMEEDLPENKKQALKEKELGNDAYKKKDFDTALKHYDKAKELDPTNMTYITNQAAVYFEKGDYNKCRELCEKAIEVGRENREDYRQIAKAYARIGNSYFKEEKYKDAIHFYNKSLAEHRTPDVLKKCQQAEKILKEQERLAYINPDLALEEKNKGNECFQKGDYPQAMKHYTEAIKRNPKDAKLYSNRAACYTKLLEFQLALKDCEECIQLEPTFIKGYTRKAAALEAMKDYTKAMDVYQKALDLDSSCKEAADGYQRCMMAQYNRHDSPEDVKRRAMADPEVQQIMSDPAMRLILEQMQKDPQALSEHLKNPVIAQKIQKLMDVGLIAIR

[11] = biological target: T3, proteins of HEK293T cells transiently overexpressing caspase-6 (Homo sapiens, UniProt P78417); conditions: protein GSTO1 (P78417)
T3 sequence (P78417 1-241): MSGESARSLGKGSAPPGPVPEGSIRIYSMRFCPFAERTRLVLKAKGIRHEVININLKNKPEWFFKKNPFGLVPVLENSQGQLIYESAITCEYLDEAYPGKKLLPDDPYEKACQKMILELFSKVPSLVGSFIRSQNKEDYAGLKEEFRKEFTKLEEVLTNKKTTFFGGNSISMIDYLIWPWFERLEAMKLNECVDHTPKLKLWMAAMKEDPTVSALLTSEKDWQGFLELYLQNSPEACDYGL

[12] = biological target: proteins of HEK293T cells transiently overexpressing caspase-6 (Homo sapiens, UniProt P60900); conditions: exp_ref Probe; protein PSMA6 (P60900); analysis C6
Sequence of proteins of HEK293T cells transiently overexpressing caspase-6 (Homo sapiens, UniProt P60900) (P60900 whole entry): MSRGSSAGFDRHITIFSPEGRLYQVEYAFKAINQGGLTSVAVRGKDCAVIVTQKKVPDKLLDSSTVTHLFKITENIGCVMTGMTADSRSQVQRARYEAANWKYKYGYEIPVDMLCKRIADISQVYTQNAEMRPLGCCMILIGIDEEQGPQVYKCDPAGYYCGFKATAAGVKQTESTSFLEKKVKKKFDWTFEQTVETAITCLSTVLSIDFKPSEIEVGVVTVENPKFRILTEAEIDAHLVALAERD

[13] = biological target: proteins of HEK293T cells transiently overexpressing caspase-6 (Homo sapiens, UniProt P13010); conditions: protein XRCC5 (P13010)
Sequence of proteins of HEK293T cells transiently overexpressing caspase-6 (Homo sapiens, UniProt P13010) (P13010 whole entry): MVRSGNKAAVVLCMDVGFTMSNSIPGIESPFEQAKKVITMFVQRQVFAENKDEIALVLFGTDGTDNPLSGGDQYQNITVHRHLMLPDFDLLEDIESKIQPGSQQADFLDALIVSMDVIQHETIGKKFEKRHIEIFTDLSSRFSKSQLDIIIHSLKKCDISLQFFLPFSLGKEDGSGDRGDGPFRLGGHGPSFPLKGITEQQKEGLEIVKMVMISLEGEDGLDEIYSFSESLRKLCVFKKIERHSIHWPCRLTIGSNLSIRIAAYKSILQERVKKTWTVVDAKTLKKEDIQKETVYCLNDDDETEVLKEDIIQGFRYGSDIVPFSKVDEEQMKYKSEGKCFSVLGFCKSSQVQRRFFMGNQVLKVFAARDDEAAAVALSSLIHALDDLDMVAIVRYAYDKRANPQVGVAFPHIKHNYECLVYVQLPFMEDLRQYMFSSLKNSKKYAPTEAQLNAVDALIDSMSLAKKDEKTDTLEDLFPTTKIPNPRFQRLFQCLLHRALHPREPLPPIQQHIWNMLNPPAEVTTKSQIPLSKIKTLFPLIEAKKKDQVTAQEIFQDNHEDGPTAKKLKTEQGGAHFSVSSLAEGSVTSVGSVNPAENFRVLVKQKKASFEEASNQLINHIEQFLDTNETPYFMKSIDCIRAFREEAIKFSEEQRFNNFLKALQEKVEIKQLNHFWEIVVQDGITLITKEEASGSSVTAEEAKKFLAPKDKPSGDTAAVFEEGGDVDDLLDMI

Sequence of proteins of HEK293T cells transiently overexpressing caspase-6 (Homo sapiens, UniProt P52272) (P52272 whole entry): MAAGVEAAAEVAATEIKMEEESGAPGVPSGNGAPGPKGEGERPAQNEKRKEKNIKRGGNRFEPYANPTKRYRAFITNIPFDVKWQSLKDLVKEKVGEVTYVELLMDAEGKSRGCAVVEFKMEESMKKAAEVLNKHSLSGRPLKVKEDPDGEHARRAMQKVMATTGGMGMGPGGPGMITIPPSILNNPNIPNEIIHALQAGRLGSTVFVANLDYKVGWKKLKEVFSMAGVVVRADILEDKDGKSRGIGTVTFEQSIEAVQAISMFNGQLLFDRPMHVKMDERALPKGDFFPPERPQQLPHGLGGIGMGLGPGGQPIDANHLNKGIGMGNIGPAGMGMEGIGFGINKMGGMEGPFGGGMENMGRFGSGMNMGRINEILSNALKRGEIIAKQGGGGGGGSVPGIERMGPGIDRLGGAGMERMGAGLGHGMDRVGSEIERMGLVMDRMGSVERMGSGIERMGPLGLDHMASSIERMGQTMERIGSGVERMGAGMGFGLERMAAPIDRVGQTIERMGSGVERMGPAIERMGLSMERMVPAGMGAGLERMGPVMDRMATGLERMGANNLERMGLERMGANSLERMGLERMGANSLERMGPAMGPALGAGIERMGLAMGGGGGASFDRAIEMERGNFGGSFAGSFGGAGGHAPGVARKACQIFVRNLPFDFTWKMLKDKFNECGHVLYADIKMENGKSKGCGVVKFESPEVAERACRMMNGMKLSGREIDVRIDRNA

Work on `C#CCOc1ccc([C@@H]2C[C@@H](C(=O)Nc3ccc(OC(F)(F)F)cc3)CN(S(=O)(=O)C=C)C2)cc1` (relative stereo) [13-t] yielded an enrich.exp.med [1] of 0.2991, an enrich.exp.med ([2]; exp_ref Probe, analysis C6) of 0.2961 and an enrich.exp.med.lin [2] of 1.228. It also gave an enrich.exp.med.log2 [2] of 0.2961, an enrich.exp.med [3] of -0.3286 and an enrich.exp.med [4] of 0.1516. It also gave an enrich.exp.med [5] of 0.2175, an enrich.exp.med ([6]; exp_ref Probe, analysis C6) of 1.237 and an enrich.exp.med.lin [6] of 2.357. It also gave an enrich.exp.med.log2 [6] of 1.237, an enrich.exp.med [7] of -1.23 and an enrich.exp.med [8] of -0.0557. For the same compound, the enrich.exp.med.lin ([9]; Expt Probe) was 7.305, the enrich.exp.med.log2 ([9]; Expt Probe) was 2.869 and the enrich.exp.med ([9]; exp_ref Probe) was 2.869. The enrich.exp.med ([10]; Probe, protein STIP1 P31948) was -0.591, the enrich.exp.med.lin ([10]; protein STIP1 (P31948)) was 0.6639 and the enrich.exp.med.log2 ([10]; protein STIP1 (P31948)) was -0.591. For the same compound, the enrich.exp.med ([11]; exp_ref Probe, analysis C6) was 0.9115, the enrich.exp.med.lin [11] was 1.881 and the enrich.exp.med.log2 [11] was 0.9115. For the same compound, the enrich.exp.med [12] was -0.241, the enrich.exp.med ([13]; exp_ref Probe, analysis C6) was 0.8127 and the enrich.exp.med.lin [13] was 1.757. It also gave an enrich.exp.med.log2 [13] of 0.8127.
